{"source": "the supplement of paper PMC10307832", "experiment_in_all_cases": "relative viability (nuclei count vs DMSO), 5 days (fraction); higher = more cells survive", "key": {"AZD6482 + Crizotinib": {"compound": "Cc1cc([C@@H](C)Nc2ccccc2C(=O)O)c2nc(N3CCOCC3)cc(=O)n2c1 [AZD6482] + C[C@@H](Oc1cc(-c2cnn(C3CCNCC3)c2)cnc1N)c1c(Cl)ccc(F)c1Cl [Crizotinib] (partner 1 µM)", "in_short": "(§1)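 Values are medians from duplicate plates. Each reflects relative viability, defined as the nuclei count of treated wells over that of vehicle wells. Lung cancer cell lines in 1536-well plates were pin-tool dosed one day after seeding with one drug alone or with a fixed anchor-drug dose plus five library-drug doses (not always all listed) in √10 steps, then fixed, stained and imaged at 4× after 5 days.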"}, "AZD6482 + Olaparib": {"compound": "Cc1cc([C@@H](C)Nc2ccccc2C(=O)O)c2nc(N3CCOCC3)cc(=O)n2c1 [AZD6482] + O=C(c1cc(Cc2n[nH]c(=O)c3ccccc23)ccc1F)N1CCN(C(=O)C2CC2)CC1 [Olaparib] (partner 8 µM)", "in_short": "as §1"}, "AZD6482 + Decitabine": {"compound": "Cc1cc([C@@H](C)Nc2ccccc2C(=O)O)c2nc(N3CCOCC3)cc(=O)n2c1 [AZD6482] + Nc1ncn([C@H]2C[C@H](O)[C@@H](CO)O2)c(=O)n1 [Decitabine] (partner 2 µM)", "in_short": "as §1"}, "AZD6482 + Bortezomib": {"compound": "Cc1cc([C@@H](C)Nc2ccccc2C(=O)O)c2nc(N3CCOCC3)cc(=O)n2c1 [AZD6482] + CC(C)C[C@H](NC(=O)[C@H](Cc1ccccc1)NC(=O)c1cnccn1)B(O)O [Bortezomib] (partner 0.002 µM)", "in_short": "as §1"}}}
{"cell line": "UMC-11", "values": [{"measurement": "relative viability", "setting": "AZD6482 + Crizotinib; first compound 0.08 µM", "value": 0.505}, {"measurement": "relative viability", "setting": "AZD6482 + Crizotinib; first compound 0.253 µM", "value": 0.578}, {"measurement": "relative viability", "setting": "AZD6482 + Crizotinib; first compound 0.8 µM", "value": 0.628}, {"measurement": "relative viability", "setting": "AZD6482 + Crizotinib; first compound 2.53 µM", "value": 0.516}, {"measurement": "relative viability", "setting": "AZD6482 + Crizotinib; first compound 8 µM", "value": 0.511}, {"measurement": "relative viability", "setting": "AZD6482 + Olaparib; first compound 0.08 µM", "value": 0.738}, {"measurement": "relative viability", "setting": "AZD6482 + Olaparib; first compound 0.253 µM", "value": 0.358}, {"measurement": "relative viability", "setting": "AZD6482 + Olaparib; first compound 0.8 µM", "value": 0.357}, {"measurement": "relative viability", "setting": "AZD6482 + Olaparib; first compound 2.53 µM", "value": 0.345}, {"measurement": "relative viability", "setting": "AZD6482 + Olaparib; first compound 8 µM", "value": 0.338}, {"measurement": "relative viability", "setting": "AZD6482 + Decitabine; first compound 0.08 µM", "value": 0.623}, {"measurement": "relative viability", "setting": "AZD6482 + Decitabine; first compound 0.253 µM", "value": 0.584}, {"measurement": "relative viability", "setting": "AZD6482 + Decitabine; first compound 0.8 µM", "value": 0.606}, {"measurement": "relative viability", "setting": "AZD6482 + Decitabine; first compound 8 µM", "value": 0.613}, {"measurement": "relative viability", "setting": "AZD6482 + Bortezomib; first compound 0.08 µM", "value": 0.836}, {"measurement": "relative viability", "setting": "AZD6482 + Bortezomib; first compound 0.253 µM", "value": 0.628}, {"measurement": "relative viability", "setting": "AZD6482 + Bortezomib; first compound 0.8 µM", "value": 0.862}, {"measurement": "relative viability", "setting": "AZD6482 + Bortezomib; first compound 2.53 µM", "value": 0.627}, {"measurement": "relative viability", "setting": "AZD6482 + Bortezomib; first compound 8 µM", "value": 0.75}]}
